Results published in patent publication US10392347B2, “2,4-dihydroxy-nicotinamides as APJ agonists” (BRISTOL-MYERS SQUIBB COMPANY, priority 2015, dated 2019).

Target: T1, human APJ receptor (Homo sapiens, UniProt P35414)
T1 construct: expressed in transfected cells
T1 sequence (P35414 1-380): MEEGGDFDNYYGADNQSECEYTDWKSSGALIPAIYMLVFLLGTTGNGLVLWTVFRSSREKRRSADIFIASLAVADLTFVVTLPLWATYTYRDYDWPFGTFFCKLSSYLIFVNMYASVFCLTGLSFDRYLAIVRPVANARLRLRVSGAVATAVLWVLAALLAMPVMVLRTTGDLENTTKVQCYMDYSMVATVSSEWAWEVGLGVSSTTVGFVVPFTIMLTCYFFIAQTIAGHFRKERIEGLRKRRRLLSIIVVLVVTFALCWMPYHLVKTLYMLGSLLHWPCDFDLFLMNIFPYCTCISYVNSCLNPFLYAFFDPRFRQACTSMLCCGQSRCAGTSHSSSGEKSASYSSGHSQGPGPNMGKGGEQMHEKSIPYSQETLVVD
Assay: Intracellular cAMP accumulation assay (APJ hcAMP, HTRF)
Assay type: cell-based
Details: Table 4; HEK293 cells stably expressing human APJ, forskolin-stimulated cAMP; read-out: Human cAMP EC50
Procedure, shortened: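 Inhibition of forskolin (2 μM)-stimulated cAMP, with […], was measured after 30 min compound exposure at room temperature in stably transfected HEK293 cells. HTRF ratios were converted to cAMP via standard curve, and EC50 values came from variable-slope sigmoidal concentration-response fitting.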

SMILES	EC50
CCCCc1nc(O)c(C(=O)N2CCN(Cc3ncccc3F)CC2)c(O)c1-c1c(OC)cccc1OC [Example 120, 6-butyl-5-(2,6-dimethoxyphenyl)-3-{4-[(3-fluoropyridin-2-yl)methyl]piperazine-1-carbonyl}pyridine-2,4-diol]	0.01 to 10 nM
CCCCc1nc(O)c(C(=O)N2CCN(Cc3cccc(C)c3F)CC2)c(O)c1-c1c(OC)cccc1OC [Example 121, 6-butyl-5-(2,6-dimethoxyphenyl)-3-{4-[(2-fluoro-3-methylphenyl)methyl]piperazine-1-carbonyl}pyridine-2,4-diol]	0.01 to 10 nM
CCCCc1nc(O)c(C(=O)N2CCN(Cc3cc(F)ccc3F)CC2)c(O)c1-c1c(OC)cccc1OC [Example 122, 6-butyl-3-{4-[(2,5-difluorophenyl)methyl]piperazine-1-carbonyl}-5-(2,6-dimethoxyphenyl)pyridine-2,4-diol]	0.01 to 10 nM
CCCCc1nc(O)c(C(=O)N2CCN(Cc3cccc(Cl)n3)CC2)c(O)c1-c1c(OC)cccc1OC [Example 123, 6-butyl-3-{4-[(6-chloropyridin-2-yl)methyl]piperazine-1-carbonyl}-5-(2,6-dimethoxyphenyl)pyridine-2,4-diol]	0.01 to 10 nM
CCCCc1nc(O)c(C(=O)N2CCN(C(=O)c3cccc(Cl)c3Cl)CC2)c(O)c1-c1c(OC)cccc1OC [Example 153, 6-butyl-3-[4-(2,3-dichlorobenzoyl)piperazine-1-carbonyl]-5-(2,6-dimethoxyphenyl)pyridine-2,4-diol]	0.01 to 10 nM
CCCCc1nc(O)c(C(=O)N2CCN(Cc3cccc(F)c3F)CC2)c(O)c1-c1cccc(OC)c1OC [Example 154, 6-butyl-3-{4-[(2,3-difluorophenyl)methyl]piperazine-1-carbonyl}-5-(2,3-dimethoxyphenyl)pyridine-2,4-diol]	0.01 to 10 nM

Same assay, conditions: Table 5; HEK293 cells stably expressing human APJ, forskolin-stimulated cAMP; read-out: Human cAMP EC50

SMILES	EC50
CCOCc1nc(O)c(C(=O)N2CCC(c3cccc(F)c3)C2)c(O)c1-c1c(OC)cccc1OC (centres unmarked) [Example 124, 5-(2,6-dimethoxyphenyl)-6-(ethoxymethyl)-3-[3-(3-fluorophenyl)pyrrolidine-1-carbonyl]pyridine-2,4-diol]	0.01 to 10 nM
COc1cccc(OC)c1-c1c(C2CCCC2)nc(O)c(C(=O)N2CCC(c3cccc(F)c3)C2)c1O (centres unmarked) [Example 125, 6-cyclopentyl-5-(2,6-dimethoxyphenyl)-3-[3-(3-fluorophenyl)pyrrolidine-1-carbonyl]pyridine-2,4-diol]	10 to 100 nM
CCOCc1nc(O)c(C(=O)N2CCC(c3ccccc3F)C2)c(O)c1-c1c(OC)cccc1OC (centres unmarked) [Example 126, 5-(2,6-dimethoxyphenyl)-6-(ethoxymethyl)-3-[3-(2-fluorophenyl)pyrrolidine-1-carbonyl]pyridine-2,4-diol]	0.01 to 10 nM
CCOCc1nc(O)c(C(=O)N2CCC(c3ccccc3F)C2)c(O)c1-c1c(OC)cccc1OC (centres unmarked) [Example 127, 5-(2,6-dimethoxyphenyl)-6-(ethoxymethyl)-3-[3-(2-fluorophenyl)pyrrolidine-1-carbonyl]pyridine-2,4-diol]	0.01 to 10 nM
COc1cccc(-c2c(-c3csc(C)n3)nc(O)c(C(=O)N3CCC(c4ncc(F)cc4F)C3)c2O)c1 (centres unmarked) [Example 128, 3-[3-(3,5-difluoropyridin-2-yl)pyrrolidine-1-carbonyl]-5-(3-methoxyphenyl)-6-(2-methyl-1,3-thiazol-4-yl)pyridine-2,4-diol]	10 to 100 nM
COc1cccc(-c2c(-c3csc(C)n3)nc(O)c(C(=O)N3CCC(c4ncc(F)cc4F)C3)c2O)c1 (centres unmarked) [Example 129, 3-[3-(3,5-difluoropyridin-2-yl)pyrrolidine-1-carbonyl]-5-(3-methoxyphenyl)-6-(2-methyl-1,3-thiazol-4-yl)pyridine-2,4-diol]	0.01 to 10 nM

Same assay, conditions: Table 6; HEK293 cells stably expressing human APJ, forskolin-stimulated cAMP; read-out: Human cAMP EC50

SMILES	EC50
CCOCc1nc(O)c(C(=O)N2CCC(c3ccc(F)cc3F)C2)c(O)c1-c1c(OC)cccc1OC (centres unmarked) [Example 131]	0.01 to 10 nM
CCOCc1nc(O)c(C(=O)N2CCC(c3ccc(F)cc3F)C2)c(O)c1-c1c(OC)cccc1OC (centres unmarked) [Example 132, 3-[3-(2,4-difluorophenyl)pyrrolidine-1-carbonyl]-5-(2,6-dimethoxyphenyl)-6-(ethoxymethyl)-4-hydroxy-1,2-dihydropyridin-2-one]	0.01 to 10 nM
CCOCc1nc(O)c(C(=O)N2CCC(c3c(F)cccc3F)C2)c(O)c1-c1c(OC)cccc1OC (centres unmarked) [Example 133, 3-[3-(2,6-difluorophenyl)pyrrolidine-1-carbonyl]-5-(2,6-dimethoxyphenyl)-6-(ethoxymethyl)-4-hydroxy-1,2-dihydropyridin-2-one]	0.01 to 10 nM
CCOCc1nc(O)c(C(=O)N2CCC(c3c(F)cccc3F)C2)c(O)c1-c1c(OC)cccc1OC (centres unmarked) [Example 134, 3-[3-(2,6-difluorophenyl)pyrrolidine-1-carbonyl]-5-(2,6-dimethoxyphenyl)-6-(ethoxymethyl)-4-hydroxy-1,2-dihydropyridin-2-one]	0.01 to 10 nM
CCCCc1nc(O)c(C(=O)N2CC[C@H](OCc3ccccc3)C2)c(O)c1-c1c(OC)cccc1OC [Example 136, 3-[(3S)-3-(benzyloxy)pyrrolidine-1-carbonyl]-6-butyl-5-(2,6-dimethoxyphenyl)pyridine-2,4-diol]	0.01 to 10 nM
CCOCc1nc(O)c(C(=O)N2CC[C@H](OCc3ccccc3)C2)c(O)c1-c1c(OC)cccc1OC [Example 137, 3-[(3S)-3-(benzyloxy)pyrrolidine-1-carbonyl]-5-(2,6-dimethoxyphenyl)-6-(ethoxymethyl)pyridine-2,4-diol]	10 to 100 nM

Same assay, conditions: Table 7; HEK293 cells stably expressing human APJ, forskolin-stimulated cAMP; read-out: Human cAMP EC50

SMILES	EC50
CCCCc1nc(O)c(C(=O)N2CCN(Cc3cccc(F)c3F)CC2)c(O)c1-c1cccc(CC#N)c1 [Example 139, 2-[3-(2-butyl-5-{4-[(2,3-difluorophenyl)methyl]piperazine-1-carbonyl}-4,6-dihydroxypyridin-3-yl)phenyl]acetonitrile]	0.01 to 10 nM
CCCCc1nc(O)c(C(=O)N2CCC(c3ncc(F)cc3F)C2)c(O)c1-c1cccc(C(C)C)c1 (centres unmarked) [Example 140, 6-butyl-3-[3-(3,5-difluoropyridin-2-yl)pyrrolidine-1-carbonyl]-5-[3-(propan-2-yl)phenyl]pyridine-2,4-diol]	0.01 to 10 nM
CCCCc1nc(O)c(C(=O)N2CCC(c3ncc(F)cc3F)C2)c(O)c1-c1cccc(C(C)C)c1 (centres unmarked) [Example 141, 6-butyl-3-[3-(3,5-difluoropyridin-2-yl)pyrrolidine-1-carbonyl]-5-[3-(propan-2-yl)phenyl]pyridine-2,4-diol]	0.01 to 10 nM
CCCCc1nc(O)c(C(=O)N2CCC(c3ncc(F)cc3F)C2)c(O)c1-c1cccc(OC)c1 (centres unmarked) [Example 142, 6-butyl-3-[3-(3,5-difluoropyridin-2-yl)pyrrolidine-1-carbonyl]-5-(3-methoxyphenyl)pyridine-2,4-diol]	0.01 to 10 nM
CCCCc1nc(O)c(C(=O)N2CCC(c3ncc(F)cc3F)C2)c(O)c1-c1cccc(OC)c1 (centres unmarked) [Example 143, 6-butyl-3-[3-(3,5-difluoropyridin-2-yl)pyrrolidine-1-carbonyl]-5-(3-methoxyphenyl)pyridine-2,4-diol]	0.01 to 10 nM
CCCCc1nc(O)c(C(=O)N2CCC(c3ncc(F)cc3F)C2)c(O)c1-c1cccc(CO)c1 (centres unmarked) [Example 144, 6-butyl-3-[3-(3,5-difluoropyridin-2-yl)pyrrolidine-1-carbonyl]-5-[3-(hydroxymethyl)phenyl]pyridine-2,4-diol]	0.01 to 10 nM
CCCCc1nc(O)c(C(=O)N2CCC(c3ncc(F)cc3F)C2)c(O)c1-c1cccc(C(=O)NC(C)C)c1 (centres unmarked) [Example 145, 3-{2-butyl-5-[3-(3,5-difluoropyridin-2-yl)pyrrolidine-1-carbonyl]-4,6-dihydroxypyridin-3-yl}-N-(propan-2-yl)benzamide]	0.01 to 10 nM
CCCCc1nc(O)c(C(=O)N2CCC(c3ncc(F)cc3F)C2)c(O)c1-c1cccc(C(=O)NC(C)C)c1 (centres unmarked) [Example 146, 3-{2-butyl-5-[3-(3,5-difluoropyridin-2-yl)pyrrolidine-1-carbonyl]-4,6-dihydroxypyridin-3-yl}-N-(propan-2-yl)benzamide]	0.01 to 10 nM
CCCCc1nc(O)c(C(=O)N2CCC(c3ncc(F)cc3F)C2)c(O)c1-c1cccc(CO)c1 (centres unmarked) [Example 147, 6-butyl-3-[3-(3,5-difluoropyridin-2-yl)pyrrolidine-1-carbonyl]-5-[3-(hydroxymethyl)phenyl]pyridine-2,4-diol]	0.01 to 10 nM

Same assay, conditions: Table 8; HEK293 cells stably expressing human APJ, forskolin-stimulated cAMP; read-out: Human cAMP EC50

SMILES	EC50
CCNCc1nc(O)c(C(=O)N2CCC(c3ccccc3F)C2)c(O)c1-c1c(OC)cccc1OC (centres unmarked) [Example 150, 5-(2,6-dimethoxyphenyl)-6-[(ethylamino)methyl]-3-[3-(2-fluorophenyl)pyrrolidine-1-carbonyl]pyridine-2,4-diol]	10 to 100 nM
CCNCc1nc(O)c(C(=O)N2CCC(c3ccccc3F)C2)c(O)c1-c1c(OC)cccc1OC (centres unmarked) [Example 151, 5-(2,6-dimethoxyphenyl)-6-[(ethylamino)methyl]-3-[3-(2-fluorophenyl)pyrrolidine-1-carbonyl]pyridine-2,4-diol]	10 to 100 nM
